Experimental findings from patent US5635391A, “Isolated DNA encoding a nitrilase polypeptide, hosts containing, and expression thereof optionally assisted by a E. coli GroE chaperone polypeptide” (priority 1992, dated 1997) are described below.

The structures appear in SMILES notation.

One test concerns the target T1, purified nitrilase (Comamonas testosteroni, UniProt Q59329).
T1 construct: about 280 kDa oligomer of about 38 kDa subunits
Briefly: Relative activity of the purified nitrilase on various nitriles. The note with it: acetate buffer 10 mM, pH 4; substrate 10 mM; 25° C. In kind it is biochemical, Comamonas testosteroni sp. Here is the method: The activities of the purified nitrilase were measured on adiponitrile, 5-cyanovaleramide, 5-cyanovaleric acid, benzonitrile, propionitrile and acrylonitrile.
COMMON CONDITIONS: acetate buffer=10 mM, pH 4; substrate=10 mM; volume=3 ml; T=25° C.; reaction time=1 or 3 h; proteins: from 5 to 30 μg/ml.

Another test relates to E. coli TG1 pXL2035,2158. Kind of test: Nitrilase activity of recombinant strain E. coli TG1 pXL2035,2158. In kind it is cell-based. The note with it: DW 0.2 g/l; 1 ml; pH 7.0; substrate 50 mM. How it is done: (§1) The activities of these strains, induced or non-induced, are measured on adiponitrile and 5-cyanovalerate at different pH values and are compared with the negative control strains: E. coli TG1, E. coli TG1 (pXL2035) and Pseudomonas putida G2081.
(§2) The cultures are carried out under the conditions described in Table 4. During the exponential growth phase, one of the two cultures of the recombinant strain is induced with 1 mM IPTG; after 2 h at 37° C., this culture is treated.
(§3) The conditions of the specific activity measurements and the results are collated in Table 5.
(§4) COMMON CONDITIONS: [substrate]=50 mM; T=25° C.; buffer 50 mM; kinetics over 90 min for 1 to 3 and over 120 min for 4 to 8.
(§5) ABBREVIATIONS: W=whole cells; S=sonicated cells; Ua=μmols of cyanovalerate produced/h; Ub=μmols of adipate produced/h; AdN=adiponitrile; CVA=5-cyanovalerate. DW=dry weight.

For another test, the system named is E. coli TG1 pXL2087. Kind of test: Nitrilase activity of recombinant strain E. coli TG1 pXL2087. The note with it: substrate 50 mM. In kind it is cell-based. Here is the method:
as §1, §2, §3, §4, §5

A further test concerns E. coli TG1. Kind of test: Nitrilase activity of control strain E. coli TG1. In kind it is cell-based. The note with it: no IPTG, whole cells, DW 15.5 g/l, 1 ml, substrate 50 mM, 25° C. How it is done: as §1, §2, §3, §4, §5
In a further test the test system is P. putida G2081 pXL2169. Briefly: Nitrilase activity of recombinant strain P. putida G2081 pXL2169. Format: cell-based, Pseudomonas putida. The following applies: no IPTG; whole cells; DW 0.25 g/l; 1 ml; pH 7.0; substrate 50 mM. Here is the method:
as §1, §2, §3, §4, §5

The next test deals with E. coli TG1 pXL2158. Briefly: Nitrilase activity of recombinant strain E. coli TG1 pXL2158. In kind it is cell-based. The note with it: DW 1.25 g/l; 1 ml; pH 7.0; substrate 50 mM. How it is done: as §1, §2, §3, §4, §5
In the next test the test system is E. coli PXL2158. Kind of test: Hydrolysis of methiononitrile with E. coli PXL2158 in suspension. In kind it is cell-based. The note with it: test 9; whole cells; MetCN 100 mM; DW 17.2 g/l; pH 7; 28° C. Here is the method: (§6) The recombinant strains used in this example are those from E. coli TG1, integrating the plasmids PXL2158 and PXL2035 described above and containing the nitrilase gene of Comamonas testosteroni.
(§7) Tests 9 to 13 show the nitrilase activity at 28° C., of these recombinant strains with respect to the methiononitrile, according to various operating conditions. The strain culture is performed as explained in example 6.1.The following Table 7 summarizes the conditions and the results of tests 9 to 13.

The subject of test [1] is E. coli PXL2158 + 2035. Kind of test: Hydrolysis of methiononitrile with free and resin-fixed cells of E. coli PXL2158 + 2035. Format: cell-based. The following applies: test 15; free cells; dry cells 1.3 g/l; MetCN 50 mM; pH7; 28° C. How it is done: The E. coli PXL 2158+2035 free cells are fixed on resin according to the technique described in U.S. Pat. No. 4,732,851, so as to form a biocatalyst.
CONDITIONS: volume=5 ml; potassium phosphate buffer=100 mM pH7, [MetCN]=50 mM; T 28° C.; kinetics over 3 h; DB=dry biocatalyst; DC=dry cells.
Two methiononitrile batches were tested: purified methiononitrile in the form of a sulfate and free methiononitrile.
CONDITIONS: volume=5 ml; potassium phosphate buffer=100 mM pH7; T 28° C.; kinetics over 3 h; *=percent with respect to the formed acid; DB=dry biocatalyst; DC=dry cells.

In test [2] the test system is E. coli PXL2158 + 2035. Kind of test: Hydrolysis of methiononitrile with E. coli PXL2158 + 2035 in suspension. Format: cell-based. The following applies: for Initial specific activity: whole cells, DW 1.4 g/l, pH 7, 28° C. How it is done: as §6, §7

T1 sequence (Q59329 entry or part of it): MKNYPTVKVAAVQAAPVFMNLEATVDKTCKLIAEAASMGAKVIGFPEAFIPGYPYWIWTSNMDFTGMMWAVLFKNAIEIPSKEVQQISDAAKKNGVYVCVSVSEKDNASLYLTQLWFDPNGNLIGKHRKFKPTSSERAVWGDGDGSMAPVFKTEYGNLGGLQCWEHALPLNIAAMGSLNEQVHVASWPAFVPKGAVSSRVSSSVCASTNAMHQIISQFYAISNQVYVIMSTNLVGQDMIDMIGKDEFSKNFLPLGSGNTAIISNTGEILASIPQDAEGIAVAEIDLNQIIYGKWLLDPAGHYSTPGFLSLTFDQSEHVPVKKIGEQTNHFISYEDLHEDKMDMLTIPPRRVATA

As to `N#CCCCCC(N)=O` [5-Cyanovaleramide, 5-cyanovaleramide], the “RELATIVE ACTIVITY” value on purified nitrilase was found to be 28%.
As to `C=CC#N` [Acrylonitrile, acrylonitrile], the “RELATIVE ACTIVITY” value at purified nitrilase stood at 23%.
For `N#Cc1ccccc1` [Benzonitrile, benzonitrile], the “RELATIVE ACTIVITY” value at purified nitrilase is reported as 4%.
As for `N#CCCCCC(=O)O` [5-Cyanovalerate, 5-cyanovalerate], the “Activity Ub” value was 70 μmols of adipate produced/h in the test with E. coli TG1 pXL2035,2158; 25 μmols of adipate produced/h with E. coli TG1 pXL2087 (+IPTG, sonicated cells, DW 1.4 g/l, 1 ml, pH 5.2); 8 μmols of adipate produced/h in the test on E. coli TG1 pXL2087 (+IPTG, sonicated cells, DW 1.4 g/l, 2 ml, pH 7.0); 28 μmols of adipate produced/h with E. coli TG1 pXL2087 (+IPTG, whole cells, DW 1.4 g/l, 1 ml, pH 4.0); 27 μmols of adipate produced/h in the test with E. coli TG1 pXL2087 (+IPTG, whole cells, DW 1.4 g/l, 1 ml, pH 5.2); 8 μmols of adipate produced/h with E. coli TG1 pXL2087 (+IPTG, whole cells, DW 1.4 g/l, 2 ml, pH 7.0). Moreover, the “Activity Ub” value in the test with E. coli TG1 pXL2087 (no IPTG, sonicated cells, DW 1.0 g/l, 1 ml, pH 5.2) was 13 μmols of adipate produced/h; in the test with E. coli TG1 pXL2087 (no IPTG, sonicated cells, DW 1.0 g/l, 1 ml, pH 7.0), 3.2 μmols of adipate produced/h; in the test on E. coli TG1 pXL2087 (no IPTG, whole cells, DW 1.2 g/l, 2 ml, pH 4.0), 10 μmols of adipate produced/h; in the test on E. coli TG1 pXL2087 (no IPTG, whole cells, DW 1.2 g/l, 2 ml, pH 5.2), 14 μmols of adipate produced/h; with E. coli TG1 pXL2087 (no IPTG, whole cells, DW 1.2 g/l, 2 ml, pH 7.0), 3.4 μmols of adipate produced/h; in the test with E. coli TG1 (pH 5.2) it was 0 μmols of adipate produced/h. For the same compound, the “Activity Ub” value in the test on E. coli TG1 (pH 7.0) was 0 μmols of adipate produced/h; in the test on E. coli TG1 pXL2158 it was 8.3 μmols of adipate produced/h. The “Activity Ua” value in the test with P. putida G2081 pXL2169 is 130 μmols of cyanovalerate produce.
In the case of `CCC#N` [Propionitrile, propionitrile], the “RELATIVE ACTIVITY” value on purified nitrilase is listed as 6%.
`CSCCC(N)C#N` (stereo not drawn) [MetCN, methiononitrile]: the Initial specific activity is 8 μmol/h x mg of DW in the test with E. coli PXL2158; 77 μmol/h x mg of DW in the test on E. coli PXL2158 + 2035 [2] (test 10, MetCN 50 mM); 62 μmol/h x mg of DW in the test with E. coli PXL2158 + 2035 [2] (test 11, MetCN 50 mM); 73 μmol/h x mg of DW in the test on E. coli PXL2158 + 2035 [2] (test 12, MetCN 100 mM); 61 μmol/h x mg of DW with E. coli PXL2158 + 2035 [2] (test 13, MetCN 200 mM). Besides, in the test on E. coli PXL2158 + 2035 [1], the “Specific Initial Activity” value turned out to be 63 μmol/hx mg DC. Further, in the test on E. coli PXL2158 + 2035 [2] (comment on Table 7), the nitrilase activity entry was “about 80 μmol of MEtCN/hxmg of DW”. Further, the “activity relative to E. coli PXL2158 alone” value with E. coli PXL2158 + 2035 [2] (tests 9 and 10) is reported as approximately 10 times.
